# Measurements published in the C3SDB collision cross section collection.
# Details: [M+H]+; instrument: TW
row,Compound,collision cross section (N2) [Å²]
1,Nc1ccc(S(=O)(=O)c2ccc(N)cc2)cc1 [Dapsone],149.9
2,CNC(=O)Oc1cccc(N=CN(C)C)c1 [Formetanate],153.76
3,CC(C)NCC(O)c1ccc(N)c(C#N)c1 (centres undefined) [Cimaterol],155.4
4,CCCCOC(=O)[C@@H](C)Oc1ccc(Oc2ccc(C(F)(F)F)cn2)cc1 [Fluazafop-P-butyl],194.8
5,Cc1nn(-c2cc(NS(C)(=O)=O)c(Cl)cc2Cl)c(=O)n1C(F)F [Sulfentrazone],173.63
6,CC(C)(C)NCC(O)c1cc(Cl)c(N)c(C(F)(F)F)c1 (centres undefined) [Mabuterol],168.4
7,Cc1cc(C2CC2)nc(Nc2ccccc2)n1 [Cyprodinil],152.07
8,Oc1ccc2nc(-c3cscn3)[nH]c2c1 [Hydroxythiabendazole],137.2
9,CN(C)[C@@H]1C(O)=C(C(N)=O)C(=O)[C@@]2(O)C(O)=C3C(=O)c4c(O)cccc4[C@@](C)(O)[C@H]3C[C@@H]12 [Tetracycline],197.3
10,Cc1c(Cl)cccc1Nc1ccccc1C(=O)O [Tolfenamic acid],153.7
11,COC(=O)N(C(=O)N1CO[C@@]2(C(=O)OC)Cc3cc(Cl)ccc3C2=N1)c1ccc(OC(F)(F)F)cc1 [Indoxacarb],207.03
12,CON(C)C(=O)Nc1ccc(Cl)cc1 [Monolinuron],142.9
13,O=C(NC(=O)c1c(F)cccc1F)Nc1ccc(Oc2ccc(C(F)(F)F)cc2Cl)cc1F [Flufenoxuron],204.46
14,C[C@@H]1C[C@H]2[C@@H]3C[C@H](F)C4=CC(=O)C=C[C@]4(C)[C@@]3(F)[C@@H](O)C[C@]2(C)[C@@]1(O)C(=O)CO [Flumethasone],193.2
15,CC(C)(C)NCC(O)c1cc(Cl)c(N)c(Br)c1 (centres undefined) [Bromchlorbuterol],165.2
16,CC(C)c1cc(Oc2ccccc2)cc(C(C)C)c1NC(=S)NC(C)(C)C [Diafenthiuron],199.75
17,Cc1nnc(NS(=O)(=O)c2ccc(N)cc2)s1 [Sulfamethizole],152.2
18,CCn1cc(C(=O)O)c(=O)c2cc3c(cc21)OCO3 [Oxolinic acid],147.8
19,CC1CCc2cc(F)cc3c(=O)c(C(=O)O)cn1c23 (centres undefined) [Flumequine],147.6
20,CNC(=O)ON=CC(C)(C)S(C)=O (centres undefined) [Aldicarb sulfoxide],145.4
21,CC1COC(Cn2cncn2)(c2ccc(Oc3ccc(Cl)cc3)cc2Cl)O1 (centres undefined) [Difenoconazole],198.48
22,Nc1ccc(S(=O)(=O)Nc2ccc(Cl)nn2)cc1 [Sulfachloropyridazine],156.9

row,Compound,collision cross section (N2) [Å²]
1,Cc1cc(C)nc(NS(=O)(=O)c2ccc(N)cc2)n1 [Sulfadimidine],159.7
2,CC(C)N(C(=O)CCl)c1ccccc1 [Propachlor],142.07
3,CC12C=CC3=C4CCC(=O)C=C4CCC3C1CCC2O (centres undefined) [17a-Trenbolone],163.3
4,COP(=O)(OC)C(O)C(Cl)(Cl)Cl (centres undefined) [Trichlorfon],136.12
5,CCC(NC(C)C)C(O)c1ccc(O)c2[nH]c(=O)ccc12 (centres undefined) [Procaterol],168
6,CN(C)[C@@H]1C(O)=C(C(N)=O)C(=O)[C@@]2(O)C(O)=C3C(=O)c4c(O)cccc4[C@@](C)(O)[C@H]3[C@H](O)[C@@H]12 [Oxytetracycline],202.3
7,CCc1nn(C)c(C(=O)NCc2ccc(C(C)(C)C)cc2)c1Cl [Tebufenpyrad],191.25
8,Cc1ccc(C(=O)c2ccc(CC(=O)O)n2C)cc1 [Tolmetin],156.7
9,C=C1C[C@@]23CC[C@H]4[C@@](C)(CCC[C@@]4(C)C(=O)O)[C@@H]2CC[C@]1(O)C3 [Steviol],173.38
10,CO/C=C(/C(=O)OC)c1ccccc1Oc1cc(Oc2ccccc2C#N)ncn1 [Azoxystrobin],195.75
11,Cc1noc(NS(=O)(=O)c2ccc(N)cc2)c1C [Sulfisoxazole],157.4
12,CCOCCOC(=O)C(C)Oc1ccc(Oc2ncc(C(F)(F)F)cc2Cl)cc1 (centres undefined) [Haloxyfop-2-ethoxyethyl],193.53
13,C[C@]12CC[C@H]3[C@@H](CCC4=CC(=O)CC[C@H]43)[C@@H]1CC[C@H]2O [17a-Nortestosterone],165.7
14,CCC(=O)c1ccc2c(c1)N(CCCN(C)C)c1ccccc1S2 [Propionylpromazine],182.8
15,CC(CCc1ccc(O)cc1)NCC(O)c1ccc(O)cc1 (centres undefined) [Ractopamine],168.9
16,Cc1ncc([N+](=O)[O-])n1C [Dimetridazole],116.4
17,CC(C)Oc1cc(-n2nc(C(C)(C)C)oc2=O)c(Cl)cc1Cl [Oxadiazon],182.17
18,COC(=O)Nc1nc2ccccc2[nH]1 [Carbendazim],134.94
19,Nc1nc(N)nc(NC2CC2)n1 [Cyromazine],133.23
20,CC(Cc1ccc(C(C)(C)C)cc1)CN1CCCCC1 (centres undefined) [Fenpropidin],166.39
21,CCC(C)(C)NCC(O)c1cc(Cl)c(N)c(Cl)c1 (centres undefined) [Clenpenterol],165
22,CC(C(=O)O)c1cccc(C(=O)c2ccccc2)c1 (centres undefined) [Ketoprofen],155.4
